The target of assay [1] is T1, rat A2A receptors (rA2A) (Rattus norvegicus, UniProt P30543).
T1 construct: to A2A receptors from rat striatal membranes was performed as described; from tissue; host or cells: rat striatal membranes
Put plainly: Displacement of [3H]CGS 21680 binding in rat striatal membranes. Conditions: Table 4; read-out: rA2A Ki. On the technique in general: Loss of bound radioactivity is the signal in a displacement assay; it reports binding, not function.

The target in assay [2] is T2, human A2B receptors (hA2B) (Homo sapiens, UniProt P29275).
T2 construct: expressed in transfected cells; host or cells: HEK-293 (HEK-A2B, G418-selected)
T2 sequence (P29275 1-332): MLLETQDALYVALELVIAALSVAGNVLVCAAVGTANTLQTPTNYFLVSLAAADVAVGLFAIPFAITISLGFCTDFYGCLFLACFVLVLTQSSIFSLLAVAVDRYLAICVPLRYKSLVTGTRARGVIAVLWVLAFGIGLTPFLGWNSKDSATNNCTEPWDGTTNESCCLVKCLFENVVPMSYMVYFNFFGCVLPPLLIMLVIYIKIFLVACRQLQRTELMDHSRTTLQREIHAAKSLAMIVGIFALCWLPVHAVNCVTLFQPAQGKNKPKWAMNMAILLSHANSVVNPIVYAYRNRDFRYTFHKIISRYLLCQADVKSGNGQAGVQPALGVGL
The assay can be described thus: Radioligand binding ([125I]ABOPX / [3H]ZM241385) at human A2B receptors expressed in HEK-293 cells. Conditions: for rA1/hA2B: Ki ratio.

Assay [3] has as its target T3, recombinant human A1 receptors (hA1) (Homo sapiens, UniProt P30542).
T3 sequence (P30542 1-326): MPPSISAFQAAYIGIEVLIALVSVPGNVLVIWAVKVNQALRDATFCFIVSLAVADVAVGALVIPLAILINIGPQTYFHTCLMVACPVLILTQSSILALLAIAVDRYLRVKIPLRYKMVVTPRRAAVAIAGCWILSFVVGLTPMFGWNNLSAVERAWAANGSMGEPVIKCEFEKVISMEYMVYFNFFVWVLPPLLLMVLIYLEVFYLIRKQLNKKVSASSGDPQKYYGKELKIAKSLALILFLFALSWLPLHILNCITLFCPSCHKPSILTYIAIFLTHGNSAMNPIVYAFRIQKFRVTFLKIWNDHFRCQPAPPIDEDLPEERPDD
The assay can be described thus: Radioligand binding ([3H]CPX) at recombinant human A1 receptors in HEK-293 cells. The conditions noted are these: read-out: hA1 Ki, values marked (h)^a; Table 4; vs [3H]CPX, HEK-293.
Method: (§1) All non-radioactive compounds were initially dissolved in DMSO, and diluted with buffer to the final concentration, where the amount of DMSO never exceeded 2%. Incubations were terminated by rapid filtration over Whatman GF/B filters, using a Brandell cell harvester (Brandell, Gaithersburg, Md.). The tubes were rinsed three times with 3 mL buffer each.
(§2) At least six different concentrations of competitor, spanning 3 orders of magnitude adjusted appropriately for the IC50 of each compound, were used. IC50 values, calculated with the nonlinear regression method implemented in (Graph-Pad Prism, San Diego, Calif.), were converted to apparent Ki values as described.
(§3) The potency of the xanthine derivatives at human A2B receptors was evaluated using two binding assays. […] In order to determine selectivity, the xanthines were evaluated using standard binding assays at A1, A2A, and A3 receptors.

Assay [4] addresses T4, rat A1 receptors (rA1) (Rattus norvegicus, UniProt P25099).
T4 construct: to A1 receptors from rat cerebral cortical membranes; from tissue; host or cells: rat cerebral cortical (brain) membranes
T4 sequence (P25099 1-326): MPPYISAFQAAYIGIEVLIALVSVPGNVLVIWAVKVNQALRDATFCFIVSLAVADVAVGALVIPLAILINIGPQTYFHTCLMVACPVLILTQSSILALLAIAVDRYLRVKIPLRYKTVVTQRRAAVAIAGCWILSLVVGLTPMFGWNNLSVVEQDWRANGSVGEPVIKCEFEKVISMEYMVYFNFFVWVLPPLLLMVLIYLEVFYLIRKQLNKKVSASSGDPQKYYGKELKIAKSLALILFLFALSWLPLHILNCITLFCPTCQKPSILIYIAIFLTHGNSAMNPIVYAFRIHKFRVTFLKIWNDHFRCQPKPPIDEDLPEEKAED
The assay can be described thus: Displacement of [3H]R-PIA binding in rat brain (cerebral cortical) membranes. The conditions noted are these: Table 4; read-out: rA1 Ki.

Assay [5] addresses T5, human A3 receptors (hA3) (Homo sapiens, UniProt P0DMS8).
T5 construct: expressed in transfected cells; host or cells: HEK-293
T5 sequence (P0DMS8 1-318): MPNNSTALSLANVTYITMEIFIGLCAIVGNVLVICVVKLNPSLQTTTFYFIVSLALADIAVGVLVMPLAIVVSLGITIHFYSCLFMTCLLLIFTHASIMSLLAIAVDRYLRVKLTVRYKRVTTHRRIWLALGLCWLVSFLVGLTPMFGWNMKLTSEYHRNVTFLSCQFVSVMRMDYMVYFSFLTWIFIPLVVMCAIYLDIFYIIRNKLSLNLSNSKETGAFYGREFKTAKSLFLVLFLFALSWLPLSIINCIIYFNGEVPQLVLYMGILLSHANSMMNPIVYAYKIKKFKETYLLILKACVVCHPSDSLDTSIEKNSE
The assay can be described thus: Displacement of [125I]AB-MECA binding at human A3 receptors expressed in HEK-293 cells (Table 4).

Assay [6] has as its target recombinant human A2A receptors (hA2A) (Homo sapiens, UniProt P29274). The assay can be described thus: Radioligand binding (125I-ZM241385) at recombinant human A2A receptors in HEK-293 cells. Conditions: read-out: hA2A Ki, values marked (h)^a; Table 4; vs [125I]ZM241385, HEK-293.
Method: as §1, §2, §3
Where [7] appears, read: Table 4, unmarked value, first of two binding assays, read-out: hA2B Ki.

Structures are written as SMILES. Like-named read-outs stand apart in the source and are kept apart here.

T1 sequence (P30543 whole entry): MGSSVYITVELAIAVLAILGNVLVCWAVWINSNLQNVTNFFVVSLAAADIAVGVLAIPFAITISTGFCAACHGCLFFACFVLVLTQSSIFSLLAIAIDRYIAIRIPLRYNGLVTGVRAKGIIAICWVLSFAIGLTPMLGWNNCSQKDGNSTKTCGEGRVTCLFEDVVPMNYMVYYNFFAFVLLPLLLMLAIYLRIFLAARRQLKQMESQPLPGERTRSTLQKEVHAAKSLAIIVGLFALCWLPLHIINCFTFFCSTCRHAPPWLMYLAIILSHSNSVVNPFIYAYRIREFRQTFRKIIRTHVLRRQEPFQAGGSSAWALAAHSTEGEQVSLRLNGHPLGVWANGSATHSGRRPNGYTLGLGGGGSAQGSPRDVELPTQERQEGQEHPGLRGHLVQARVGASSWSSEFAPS
Chain of recombinant human A2A receptors (hA2A) (P29274 whole entry): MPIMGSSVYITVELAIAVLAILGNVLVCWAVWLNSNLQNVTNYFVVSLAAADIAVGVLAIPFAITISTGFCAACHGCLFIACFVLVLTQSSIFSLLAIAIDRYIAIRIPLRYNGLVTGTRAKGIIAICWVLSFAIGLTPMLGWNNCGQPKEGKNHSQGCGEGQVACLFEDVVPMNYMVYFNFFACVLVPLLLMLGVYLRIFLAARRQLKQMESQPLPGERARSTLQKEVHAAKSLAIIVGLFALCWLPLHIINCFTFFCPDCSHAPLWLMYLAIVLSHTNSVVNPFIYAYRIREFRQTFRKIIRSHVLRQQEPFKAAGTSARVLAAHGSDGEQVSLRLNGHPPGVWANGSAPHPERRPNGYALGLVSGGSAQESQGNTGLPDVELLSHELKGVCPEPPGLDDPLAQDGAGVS

Usually Ki stands for the dissociation constant of the complex between target and ligand, obtained from inhibition or displacement. For `CCCn1c(=O)c2[nH]c(-c3ccc(OCC(=O)NNC(=O)CCC(=O)O)cc3)nc2n(CCC)c1=O` [Compound 42, 8-[4-[(Carboxymethyl)oxy]phenyl]-1,3-di-(n-propyl)xanthine N-[(3-Carboxy)-n-propionyl]hydrazide], the Ki is 174 ± 32 nM in assay [1]; 97.8 nM in assay [2] (Table 4, footnote a: [125I]-ABOPX, read-out: hA2B Ki (value marked ^a) (converted)); 116 ± 10 nM in assay [2] (setting [7]); 219 nM in assay [3]; 73.3 ± 22 nM in assay [4]; 173 ± 27 nM in assay [5]. In assay [6], the Ki was 795 nM. Further, the rA1/hA2B in assay [2] (Table 4) was 1.6.

As for `CCCn1c(=O)c2[nH]c(-c3ccc(OCC(=O)NN4C(=O)CCC4=O)cc3)nc2n(CCC)c1=O` [Compound 43, 8-[4-[(Carboxymethyl)oxy]phenyl]-1,3-di-(n-propyl)xanthine N,N-Succinylhydrazide], the Ki is 805 ± 44 nM in assay [1]; 18.6 ± 6.1 nM in assay [2] (setting [7]); 75.2 nM in assay [3]; 55.9 ± 25.1 nM in assay [4]; 766 ± 176 nM in assay [5]; 27.2 nM in assay [6]. Also, in assay [2] (Table 4), the rA1/hA2B is 3.0.

As to `CCCn1c(=O)c2[nH]c(-c3ccc(OCC(=O)NN4C(=O)C[C@H](NC(=O)C(F)(F)F)C4=O)cc3)nc2n(CCC)c1=O` [Compound 44, 8-[4-[(Carboxymethyl)oxy]phenyl]-1,3-di-(n-propyl)xanthine N,N-[((2S)-Trifluoroacetamido)succinyl]hydrazide], the Ki in assay [1] was 139 ± 32 nM; in assay [2] (setting [7]), 30.2 ± 0.5 nM; in assay [4], 74.3 ± 6.6 nM; in assay [5], 1560 nM. Besides, the rA1/hA2B in assay [2] (Table 4) was determined as 2.5.

Consider `CCCn1c(=O)c2[nH]c(-c3ccc(OCC(=O)NN4C(=O)CCC(c5ccccc5)C4=O)cc3)nc2n(CCC)c1=O` (stereo not shown) [Compound 45, 8-[4-[(Carboxymethyl)oxy]phenyl]-1,3-di-(n-propyl)xanthine N,N-[(2-Phenyl)glutaryl]hydrazide], for which the Ki in assay [1] came out at 21.4 ± 6.1 nM; in assay [2] (setting [7]), 3.86 ± 0.7 nM; in assay [4] it was 3.87 ± 1.2 nM; in assay [5], 151 ± 99 nM. Further, the rA1/hA2B in assay [2] (Table 4) turned out to be 1.0.

With `CCCn1c(=O)c2[nH]c(-c3ccc(OCC(=O)NN4C(=O)C=C(C)C4=O)cc3)nc2n(CCC)c1=O` [Compound 46, 8-[4-[(Carboxymethyl)oxy]phenyl]-1,3-di-(n-propyl)xanthine N,N-Citraconylhydrazide], the Ki is 1230 ± 270 nM in assay [1], 144 ± 11 nM in assay [2] (setting [7]), 203 ± 41 nM in assay [4] and 551 ± 106 nM in assay [5]. Besides, in assay [2] (Table 4), the rA1/hA2B was determined as 1.4.

With `CCCn1c(=O)c2[nH]c(-c3ccc(OCC(=O)NN4C(=O)C=C(c5ccccc5)C4=O)cc3)nc2n(CCC)c1=O` [Compound 49, 8-[4-[(Carboxymethyl)oxy]phenyl]-1,3-di-(n-propyl)xanthine N,N-[(2-Phenyl)maleyl]hydrazide], the Ki in assay [1] was 1540 ± 280 nM; in assay [2] (setting [7]) it was 66.7 ± 37 nM; in assay [4] it was 225 ± 76 nM; in assay [5] it was 748 ± 234 nM. Moreover, the rA1/hA2B in assay [2] (Table 4) came out at 3.4.

As to `CCCn1c(=O)c2[nH]c(-c3ccc(OCC(=O)NN4C(=O)C(c5ccccc5)=C(c5ccccc5)C4=O)cc3)nc2n(CCC)c1=O` [Compound 50, 8-[4-[(Carboxymethyl)oxy]phenyl]-1,3-di-(n-propyl)xanthine N,N-[(1,2-Diphenyl)maleyl]hydrazide], the Ki in assay [1] stood at 2100 ± 630 nM; in assay [2] (setting [7]), 27.9 ± 8.5 nM; in assay [4], 95.8 ± 25.1 nM; in assay [5], 3450 ± 1470 nM. Besides, in assay [2] (Table 4), the rA1/hA2B is listed as 3.4.

In the case of `CCCn1c(=O)c2[nH]c(-c3ccc(OCC(=O)NNC(=O)C4CC=CCC4C(=O)O)cc3)nc2n(CCC)c1=O` (stereo not drawn) [Compound 51, 8-[4-[(Carboxymethyl)oxy]phenyl]-1,3-di-(n-propyl)xanthine N-[2-((1-Carboxy)-cis-4-cyclohexene)-carbonyl]hydrazide], the Ki in assay [1] turned out to be 813 ± 299 nM; in assay [2] (setting [7]) it was 51 ± 7 nM; in assay [4] it was 134 ± 19 nM; in assay [5] it was 1060 ± 150 nM. In addition, in assay [2] (Table 4), the rA1/hA2B is reported as 2.6.

On to `CCCn1c(=O)c2[nH]c(-c3ccc(OCC(=O)NNC(=O)C4=C(C(=O)O)CCC4)cc3)nc2n(CCC)c1=O` [Compound 53, 8-[4-[(Carboxymethyl)oxy]phenyl]-1,3-di-(n-propyl)xanthine N-[2-((1-Carboxy)-1-cyclopentene)-carbonyl]hydrazide], for which the Ki in assay [1] was 708 ± 169 nM; in assay [2] (setting [7]), 78.5 ± 20.5 nM; in assay [4], 81.7 ± 31.2 nM; in assay [5] it was 1180 ± 700 nM. The rA1/hA2B in assay [2] (Table 4) amounted to 1.0.

Regarding `CCCn1c(=O)c2[nH]c(-c3ccc(OCC(=O)NN4C(=O)C5=C(CCC5)C4=O)cc3)nc2n(CCC)c1=O` [Compound 54, 8-[4-[(Carboxymethyl)oxy]phenyl]-1,3-di-(n-propyl)xanthine N,N-(1-Cyclopentene-1,2-dicarbonyl)hydrazide], the Ki in assay [1] was determined as 1160 ± 337 nM; in assay [2] (setting [7]) it was 21.5 ± 1.5 nM; in assay [4] it was 41.3 ± 6.4 nM; in assay [5] it was 309 ± 88 nM. In addition, in assay [2] (Table 4), the rA1/hA2B stood at 1.9.

Regarding `CCCn1c(=O)c2[nH]c(-c3ccc(OCC(=O)NN4C(=O)C5=C(CCCC5)C4=O)cc3)nc2n(CCC)c1=O` [Compound 56, 8-[4-[(Carboxymethyl)oxy]phenyl]-1,3-di-(n-propyl)xanthine N,N-(3,4,5,6-Tetrahydrophthaloyl)hydrazide], the Ki in assay [1] worked out at 415 ± 157 nM; in assay [2] (setting [7]), 35.8 ± 0.7 nM; in assay [4], 61.9 ± 11.3 nM; in assay [5] it was 245 ± 45 nM. Moreover, the rA1/hA2B in assay [2] (Table 4) is recorded as 1.7.

For `CCCn1c(=O)c2[nH]c(-c3ccc(OCC(=O)NN4C(=O)CCCC4=O)cc3)nc2n(CCC)c1=O` [Compound 58, 8-[4-[(Carboxymethyl)oxy]phenyl]-1,3-di-(n-propyl)xanthine N,N-Glutarylhydrazide], the Ki stood at 135 ± 39 nM in assay [1], 22 ± 5.5 nM in assay [2] (setting [7]), 14 ± 2.3 nM in assay [4] and 200 ± 45 nM in assay [5]. Also, the rA1/hA2B in assay [2] (Table 4) turned out to be 0.6.

`CCCn1c(=O)c2[nH]c(-c3ccc(OCC(=O)NN4C(=O)CC(O)CC4=O)cc3)nc2n(CCC)c1=O` [Compound 59, 8-[4-[(Carboxymethyl)oxy]phenyl]-1,3-di-(n-propyl)xanthine N,N-(3-Hydroxy)glutarylhydrazide]: the Ki in assay [1] stood at 164 ± 61 nM; in assay [2] (setting [7]), 25.7 ± 5.5 nM; in assay [4] it was 41.2 ± 16.6 nM; in assay [5], 290 ± 88 nM. The rA1/hA2B in assay [2] (Table 4) worked out at 1.6.

Turning to `CCCn1c(=O)c2[nH]c(-c3ccc(OCC(=O)NNC(=O)[C@H](CCC(=O)O)NC(=O)C(F)(F)F)cc3)nc2n(CCC)c1=O` [Compound 60, 8-[4-[(Carboxymethyl)oxy]phenyl]-1,3-di-(n-propyl)xanthine N-[(4-Carboxy-(2S)-Trifluoroacetamido)-n-butanoyl]hydrazide], the Ki in assay [1] was determined as 872 ± 412 nM; in assay [2] (setting [7]), 24.8 ± 7.3 nM; in assay [2] (read-out: Ki value at human A2B receptors) it was 25 nM; in assay [4] it was 70.8 ± 30.9 nM; in assay [5] it was 430 ± 44 nM. The rA1/hA2B in assay [2] (Table 4) was determined as 2.9.
